Measured values as given in patent publication US10793552B2, “Amino pyrimidine ssao inhibitors” (Eli Lilly and Company, priority 2016, dated 2020).
Like-named read-outs stand apart in the source and are kept apart here.

Experiments:
Format in all cases: in vivo
SSAO = SSAO (Rattus norvegicus (Rat), UniProt O08590); assay: SSAO Target Engagement in rat plasma and liver; settings: for activity at 0.005 mg/kg / activity at 0.025 mg/kg / activity at 0.12 mg/kg / activity at 0.6 mg/kg / activity at 3 mg/kg / activity at 15 mg/kg: mean ± SEM
SSAO, sequence (O08590 whole entry): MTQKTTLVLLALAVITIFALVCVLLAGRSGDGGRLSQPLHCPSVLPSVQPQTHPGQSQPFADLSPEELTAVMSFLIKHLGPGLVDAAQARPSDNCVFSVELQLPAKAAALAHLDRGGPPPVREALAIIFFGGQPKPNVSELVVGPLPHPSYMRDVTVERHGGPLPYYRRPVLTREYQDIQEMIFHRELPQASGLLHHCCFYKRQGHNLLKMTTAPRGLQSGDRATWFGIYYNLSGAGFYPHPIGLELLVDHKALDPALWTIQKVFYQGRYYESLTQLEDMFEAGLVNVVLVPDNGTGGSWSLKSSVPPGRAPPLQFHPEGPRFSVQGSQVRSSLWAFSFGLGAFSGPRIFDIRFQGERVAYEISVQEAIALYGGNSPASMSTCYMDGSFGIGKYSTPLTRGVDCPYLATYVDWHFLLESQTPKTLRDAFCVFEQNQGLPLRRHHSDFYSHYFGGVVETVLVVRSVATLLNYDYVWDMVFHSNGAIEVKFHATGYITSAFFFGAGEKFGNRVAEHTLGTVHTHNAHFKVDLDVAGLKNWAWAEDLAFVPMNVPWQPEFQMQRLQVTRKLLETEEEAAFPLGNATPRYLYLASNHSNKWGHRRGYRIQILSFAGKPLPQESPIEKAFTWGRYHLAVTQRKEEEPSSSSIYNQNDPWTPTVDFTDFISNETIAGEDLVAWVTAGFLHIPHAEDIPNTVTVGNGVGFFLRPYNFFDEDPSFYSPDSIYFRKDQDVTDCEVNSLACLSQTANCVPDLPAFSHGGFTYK
Method: The SSAO activity in rat plasma and liver tissues are measured using the MAO-Glo™ assay kit from Promega (V1402). The residual SSAO activity in rats after compound treatment is estimated by measuring the total amine oxidase activity in plasma or liver lysates that are insensitive to the presence of the MAO inhibitor Clogyline and Pargyline. Rats are administered the compound of Example 2 at the doses of 15, 3, 0.6, 0.12, 0.025, 0.005 mg/kg. The control group is administered with the same volume (2 ml/kg) of the dosing vehicle (hydroxyethyl cellulose 1% w/v, 0.25% Tween 80). Plasma and liver at 2 or 24 hours post compound treatment are harvested and stored at −78° C. until analysis. Tissue lysates are prepared by homogenization in a lysis buffer (20 mM HEPES, pH 7.4, 150 mM NaCl, 1 mM EDTA, 1 mM EGTA, 1% Triton X-100 and 1× Roche Complete protease inhibitor tablet). Tissue particles are removed by centrifugation at 12,000 rpm at 4° C. for 30 minutes. 40 μl of plasma or liver lysates is incubated with Clogyline (10 μM) and Pargyline (10 μM) for 20 minutes at room temperature before the addition of the luminogenic substrate (50 μM) for 60 minutes. The product generated is quantified according to the manufacture's procedure. The fraction of activity that is insensitive to the presence of the MAO inhibitors is used as the surrogate for the residual SSAO activity. The compound of Example 2 was evaluated in the protocol essentially as described above administered at various doses.

[1] = test system: C57BL/6N mice fed 3H diet; assay: Mouse Model of NASH and Fibrosis Induced by 3H Diet; settings: mouse 3H diet; for Score (0-3) Hepatic inflammation Left / Score (0-3) Macrovesicular vaculation Left / Score (0-3) Perisinusoidal fibrosis Left: left lobe; for Score (0-3) Hepatic inflammation Left / Score (0-3) Macrovesicular vaculation Left / Score (0-3) Perisinusoidal fibrosis Left / Score (0-3) Hepatic inflammation Right / Score (0-3) Macrovesicular vaculation Right / Score (0-3) Perisinusoidal fibrosis Right: mean ± SEM; for Score (0-3) Hepatic inflammation Right / Score (0-3) Macrovesicular vaculation Right / Score (0-3) Perisinusoidal fibrosis Right: right lobe
Method: Male C57BL/6N mice are fed with D09100301 diet (Research Diets, 40% fat, 2% cholesterol, 24% fructose, (the, high fat, high cholesterol and high fructose, the “3H diet”) for 150 days. Each mouse is then singly housed after 5 days for an acclimation period. Plasma alanine aminotransferase (ALT) and cytokeratin 18 (CK18) are measured. After one week of recovery, the mice are randomized into 5 groups based on their ALT values, CK18 values, and body weight. […] Blood is collected from mice treated with the compound of Example 6 for 76 days 2 hours after the last dose. Compound levels in the plasma are analyzed by mass spectroscopy. […] At the completion of the study, the animals are sacrificed and their livers excised. Two sections of the left and right lobes are fixed in neutral buffered 10% formalin. Liver tissue slides are stained with hematoxylin and eosin (H&E), Sirius red, and Masson's Trichrome to prepare slides for pathological analysis. All specimens are examined microscopically and scored as a modified Brunt score NASH Activity Score. Scores are based on the grading scheme and end-points as described in Brunt E. M. et al., “Histopathology of nonalcoholic fatty liver disease,” World J. of Gastroenterol, 2010, 16(42), 5286-5296. Group means are then calculated for each individual end-point. The following endpoints are used to characterize the fast food model of NASH in mice as modified from NASH endpoints (See Brunt, E. M. “Histopathology of nonalcoholic fatty liver disease,” Clin Liver Dis., 2009, 13, 533-544 and Brunt, E. M, et al., “Nonalcoholic steatohepatitis: A proposal for grading and staging the histological lesions”, Am J Gastroenterology, 1999, 94(9), 2467-2474.

[2] = Plasma compound levels in 3H diet mice by mass spectroscopy; settings: mouse, treated 76 days, 2 hours after the last dose, all doses
Method: Male C57BL/6N mice are fed with D09100301 diet (Research Diets, 40% fat, 2% cholesterol, 24% fructose, (the, high fat, high cholesterol and high fructose, the “3H diet”) for 150 days. Each mouse is then singly housed after 5 days for an acclimation period. Plasma alanine aminotransferase (ALT) and cytokeratin 18 (CK18) are measured. After one week of recovery, the mice are randomized into 5 groups based on their ALT values, CK18 values, and body weight. Animals of each group are administrated either vehicle (0.5% methylcellulose (MC)+0.25% Tween 80 in distilled water) or the compound of Example 6 (at a 0.06, 2, 6, and 20 mg/kg dose) once daily in a volume of 5 ml/kg for 11 weeks. Blood is collected from mice treated with the compound of Example 6 for 76 days 2 hours after the last dose. Compound levels in the plasma are analyzed by mass spectroscopy.

[3] = liver, 24 hour, n = 6, read-out: SSAO Activity (%) Liver 24 hour
[4] = plasma, 2 hour, n = 6, read-out: SSAO Activity (%) Plasma 2 hour
[5] = plasma, 24 hour, n = 6, read-out: SSAO Activity (%) Plasma 24 hour
[6] = 20 mg/kg once daily 11 weeks, p < 0.05 vs vehicle

Question: For Cl.Cl.NC/C(=C\F)COc1cnc(N2CCC(O)CC2)nc1 [Example 2, 1-[5-[(E)-2-(Aminomethyl)-3-fluoro-allyloxy]pyrimidin-2-yl]piperidin-4-ol dihydrochloride], which activity at 0.005 mg/kg (SSAO; [3]) is on record?
Answer: 75 ± 18%

Question: And the activity at 0.005 mg/kg (SSAO; [4])?
Answer: 31 ± 3%

Question: And the activity at 0.005 mg/kg (SSAO; [5])?
Answer: 70 ± 7%

Question: And the activity at 0.025 mg/kg (SSAO; [3])?
Answer: 68 ± 14%

Question: And the activity at 0.025 mg/kg (SSAO; [4])?
Answer: 21 ± 1%

Question: What about the activity at 0.025 mg/kg (SSAO; [5]) of the same compound?
Answer: 55 ± 9%

Question: What about the activity at 0.12 mg/kg (SSAO; [3]) of the same compound?
Answer: 45 ± 8%

Question: What about the activity at 0.12 mg/kg (SSAO; [4]) of the same compound?
Answer: 7 ± 1%

Question: And the activity at 0.12 mg/kg (SSAO; [5])?
Answer: 35 ± 4%

Question: And the activity at 0.6 mg/kg (SSAO; [3])?
Answer: 16.2 ± 2.9%

Question: And the activity at 0.6 mg/kg (SSAO; [4])?
Answer: 4.3 ± 0.8%

Question: And the activity at 0.6 mg/kg (SSAO; [5])?
Answer: 16.3 ± 2.6%

Question: What about the activity at 3 mg/kg (SSAO; [3]) of the same compound?
Answer: 7.1 ± 1.7%

Question: What about the activity at 3 mg/kg (SSAO; [4]) of the same compound?
Answer: 3.6 ± 1%

Question: And the activity at 3 mg/kg (SSAO; [5])?
Answer: 8.8 ± 1.3%

Question: What about the activity at 15 mg/kg (SSAO; [3]) of the same compound?
Answer: 9.6 ± 2.6%

Question: And the activity at 15 mg/kg (SSAO; [4])?
Answer: -0.6 ± 0.3%

Question: And the activity at 15 mg/kg (SSAO; [5])?
Answer: 6.6 ± 1.8%

Question: And the “inhibition of SSAO activity in rat plasma and liver” value (SSAO; doses 0.005 to 15 mg/kg)?
Answer: dose-dependently inhibits SSAO activity

Question: With Cl.Cl.NC/C(=C\F)COc1cnc(N2CC[C@H](O)C2)nc1 [Example 6, (3S)-1-[5-[(E)-2-(Aminomethyl)-3-fluoro-allyloxy]pyrimidin-2-yl]pyrrolidin-3-ol; Dihydrochloride] as the compound, how does the “Score (0-3) Hepatic inflammation Left” value ([1]; 0.6 mg/kg once daily 11 weeks) read?
Answer: 2.6 ± 0.1

Question: What about the “Score (0-3) Macrovesicular vaculation Left” value ([1]; 0.6 mg/kg once daily 11 weeks) of the same compound?
Answer: 2.5 ± 0.1

Question: What about the “Score (0-3) Perisinusoidal fibrosis Left” value ([1]; 0.6 mg/kg once daily 11 weeks) of the same compound?
Answer: 2.4 ± 0.2

Question: What about the “Score (0-3) Hepatic inflammation Right” value ([1]; 0.6 mg/kg once daily 11 weeks) of the same compound?
Answer: 2.5 ± 0.1

Question: What about the “Score (0-3) Macrovesicular vaculation Right” value ([1]; 0.6 mg/kg once daily 11 weeks) of the same compound?
Answer: 2.6 ± 0.1

Question: What about the “Score (0-3) Perisinusoidal fibrosis Right” value ([1]; 0.6 mg/kg once daily 11 weeks) of the same compound?
Answer: 1.9 ± 0.2

Question: And the “Score (0-3) Hepatic inflammation Left” value ([1]; 2 mg/kg once daily 11 weeks)?
Answer: 2.5 ± 0.1

Question: What about the “Score (0-3) Macrovesicular vaculation Left” value ([1]; 2 mg/kg once daily 11 weeks) of the same compound?
Answer: 2.5 ± 0.1

Question: And the “Score (0-3) Perisinusoidal fibrosis Left” value ([1]; 2 mg/kg once daily 11 weeks)?
Answer: 2.5 ± 0.2

Question: And the “Score (0-3) Hepatic inflammation Right” value ([1]; 2 mg/kg once daily 11 weeks)?
Answer: 2.6 ± 0.1

Question: And the “Score (0-3) Macrovesicular vaculation Right” value ([1]; 2 mg/kg once daily 11 weeks)?
Answer: 2.7 ± 0.1

Question: What about the “Score (0-3) Perisinusoidal fibrosis Right” value ([1]; 2 mg/kg once daily 11 weeks) of the same compound?
Answer: 1.8 ± 0.2

Question: What about the “Score (0-3) Hepatic inflammation Left” value ([1]; 6 mg/kg once daily 11 weeks) of the same compound?
Answer: 2.5 ± 0.2

Question: And the “Score (0-3) Macrovesicular vaculation Left” value ([1]; 6 mg/kg once daily 11 weeks)?
Answer: 2.9 ± 0.1

Question: What about the “Score (0-3) Perisinusoidal fibrosis Left” value ([1]; 6 mg/kg once daily 11 weeks) of the same compound?
Answer: 2.6 ± 0.2

Question: And the “Score (0-3) Hepatic inflammation Right” value ([1]; 6 mg/kg once daily 11 weeks)?
Answer: 2.6 ± 0.2

Question: What about the “Score (0-3) Macrovesicular vaculation Right” value ([1]; 6 mg/kg once daily 11 weeks) of the same compound?
Answer: 2.7 ± 0.1

Question: And the “Score (0-3) Perisinusoidal fibrosis Right” value ([1]; 6 mg/kg once daily 11 weeks)?
Answer: 2.1 ± 0.3

Question: What about the “hepatic inflammation (in words)” value ([1]; 20 mg/kg) of the same compound?
Answer: significant decrease

Question: And the “macrovesicular vaculation (in words)” value ([1]; 20 mg/kg)?
Answer: significant decrease

Question: What about the “perisinusoidal fibrosis (in words)” value ([1]; 20 mg/kg) of the same compound?
Answer: significant decrease

Question: And the “Score (0-3) Macrovesicular vaculation Left” value ([1]; 20 mg/kg once daily 11 weeks)?
Answer: 2.4 ± 0.2

Question: What about the “Score (0-3) Perisinusoidal fibrosis Left” value ([1]; 20 mg/kg once daily 11 weeks) of the same compound?
Answer: 1.9 ± 0.2

Question: And the “Score (0-3) Hepatic inflammation Left” value ([1]; 20 mg/kg once daily 11 weeks, p < 0.01 vs vehicle)?
Answer: 2.1 ± 0.1

Question: And the “Score (0-3) Hepatic inflammation Right” value [1, 6]?
Answer: 2.1 ± 0.1

Question: What about the “Score (0-3) Macrovesicular vaculation Right” value [1, 6] of the same compound?
Answer: 2.3 ± 0.1

Question: And the “Score (0-3) Perisinusoidal fibrosis Right” value [1, 6]?
Answer: 1.5 ± 0.2

Question: And the “triglyceride levels in blood (in words)” value ([1]; 6 and 20 mg/kg)?
Answer: decreased triglyceride levels

Question: What about the “ALT (in words)” value ([1]; all treated groups) of the same compound?
Answer: significant decrease

Question: And the “plasma compound levels (in words)” value [2]?
Answer: dose-dependent increase
